The subject of the assay is Radical scavenging activity. As to the kind of experiment: Antioxidant activity assessed as DPPH radical scavenging activity after 30 mins by spectrophotometer. It counts as functional.
For the compound `O=C1CCCC[C@@H]1Cc1c(Br)c(O)c(O)c(Br)c1Br` [SYMPHYOKETONE], the half-maximal inhibitory concentration (IC50) (in general, the concentration needed to halve the response being measured) amounted to 8.5 µM.

For `O=C1O[C@H]([C@@H](O)CO)C(O)=C1O` [ASCORBIC ACID], the IC50 was 15.3 µM. Next, `OCc1c(Br)c(O)c(O)c(Br)c1Br`: 7.5 µM.

These data come from ChEMBL document CHEMBL1154993, “A cyclohexanonyl bromophenol from the red alga Symphyocladia latiuscula” (J Nat Prod, 2000).
